Counter-ions that a name gives are not always drawn. Like-named read-outs stand apart in the source and are kept apart here.
Assays:
Type in all cases: biochemical
[1] = target: T1, recombinant human DAO (diamine oxidase) (Homo sapiens, UniProt P19801); assay: Activity evaluation on recombinant human DAO (Amplex Red/HRP-coupled assay, 1 mM putrescine substrate); conditions: read-out: Inhibitory Activity (IC50, nM) DAO
T1 construct: purchased R&D systems
T1 sequence (P19801 20-751): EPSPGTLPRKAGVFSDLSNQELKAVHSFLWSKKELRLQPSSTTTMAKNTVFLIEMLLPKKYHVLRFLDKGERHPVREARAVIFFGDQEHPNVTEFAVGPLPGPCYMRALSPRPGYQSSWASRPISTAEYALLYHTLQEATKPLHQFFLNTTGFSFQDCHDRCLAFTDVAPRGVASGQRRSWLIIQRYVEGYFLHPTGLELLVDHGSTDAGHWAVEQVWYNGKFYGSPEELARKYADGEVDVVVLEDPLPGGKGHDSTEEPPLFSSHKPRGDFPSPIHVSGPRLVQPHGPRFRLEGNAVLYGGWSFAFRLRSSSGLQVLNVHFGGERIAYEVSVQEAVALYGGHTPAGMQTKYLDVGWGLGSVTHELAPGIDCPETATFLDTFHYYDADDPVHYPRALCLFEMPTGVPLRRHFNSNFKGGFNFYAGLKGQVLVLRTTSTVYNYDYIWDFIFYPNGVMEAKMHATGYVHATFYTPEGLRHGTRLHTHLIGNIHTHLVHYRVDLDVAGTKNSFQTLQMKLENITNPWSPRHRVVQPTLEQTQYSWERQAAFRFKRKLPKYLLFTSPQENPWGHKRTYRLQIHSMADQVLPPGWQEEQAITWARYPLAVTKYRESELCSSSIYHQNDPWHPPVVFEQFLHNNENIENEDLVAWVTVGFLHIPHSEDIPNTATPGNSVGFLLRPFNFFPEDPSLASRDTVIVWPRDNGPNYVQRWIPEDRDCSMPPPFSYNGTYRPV
How it was run: (§1)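 Compounds preincubated 30 min at 37 °C with enzyme in 50 mM sodium phosphate pH 7.4 (final DMSO <1%, 8-point 1:3 dilutions); reaction started with 200 uM Amplex Red, 1 U/mL HRP and substrate (MAO-A 0.5 mM tyramine, MAO-B 1 mM benzylamine, DAO 1 mM putrescine). Resorufin fluorescence (ex 544/em 590 nm) followed over 1-2 h; IC50 from four-parameter logistic fit.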

[2] = target: T2, recombinant human MAO-A (monoamine oxidase-A) (Homo sapiens, UniProt P21397); assay: Activity evaluation on recombinant human MAO-A (Amplex Red/HRP-coupled assay, 0.5 mM tyramine substrate); conditions: read-out: Inhibitory Activity (IC50, nM) MAO-A
T2 construct: purchased Sigma-Aldrich
T2 sequence (P21397 1-527): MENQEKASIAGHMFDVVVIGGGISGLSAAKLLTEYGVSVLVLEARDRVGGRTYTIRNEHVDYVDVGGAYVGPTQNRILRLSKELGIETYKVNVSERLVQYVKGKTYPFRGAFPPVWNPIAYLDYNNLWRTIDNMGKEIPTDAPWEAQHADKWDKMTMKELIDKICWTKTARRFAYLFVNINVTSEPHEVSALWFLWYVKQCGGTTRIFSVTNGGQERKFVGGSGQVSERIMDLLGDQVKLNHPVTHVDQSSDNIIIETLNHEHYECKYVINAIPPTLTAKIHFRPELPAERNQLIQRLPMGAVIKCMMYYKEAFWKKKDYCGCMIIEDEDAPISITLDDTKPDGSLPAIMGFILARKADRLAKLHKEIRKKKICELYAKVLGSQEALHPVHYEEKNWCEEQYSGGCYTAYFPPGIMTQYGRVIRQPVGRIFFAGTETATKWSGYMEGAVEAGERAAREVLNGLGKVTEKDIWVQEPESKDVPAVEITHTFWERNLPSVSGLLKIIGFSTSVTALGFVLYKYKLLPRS
How it was run: as §1

[3] = target: T3, recombinant human MAO-B (monoamine oxidase-B) (Homo sapiens, UniProt P27338); assay: Activity evaluation on recombinant human MAO-B (Amplex Red/HRP-coupled assay, 1 mM benzylamine substrate); conditions: read-out: Inhibitory Activity (IC50, nM) MAO-B
T3 construct: purchased Sigma-Aldrich
T3 sequence (P27338 1-520): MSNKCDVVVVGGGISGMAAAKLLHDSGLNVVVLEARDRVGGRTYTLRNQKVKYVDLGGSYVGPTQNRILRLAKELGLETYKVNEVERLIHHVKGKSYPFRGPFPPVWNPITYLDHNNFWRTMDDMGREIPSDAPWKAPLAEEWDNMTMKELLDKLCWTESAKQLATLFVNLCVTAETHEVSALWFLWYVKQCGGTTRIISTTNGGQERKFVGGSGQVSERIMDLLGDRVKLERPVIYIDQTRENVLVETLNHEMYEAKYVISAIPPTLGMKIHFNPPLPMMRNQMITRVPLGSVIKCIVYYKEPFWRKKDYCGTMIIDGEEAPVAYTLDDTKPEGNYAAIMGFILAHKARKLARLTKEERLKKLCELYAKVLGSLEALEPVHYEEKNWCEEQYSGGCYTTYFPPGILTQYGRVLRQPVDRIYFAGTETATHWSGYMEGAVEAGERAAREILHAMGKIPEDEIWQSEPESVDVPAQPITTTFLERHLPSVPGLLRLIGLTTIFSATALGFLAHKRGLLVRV
How it was run: as §1

recombinant human VAP-1 = target: T4, recombinant human VAP-1 (Homo sapiens, UniProt Q16853); assay: Activity evaluation on recombinant human VAP-1 (Amplex Red/HRP-coupled hydrogen peroxide assay, benzylamine substrate); conditions: read-out: Inhibitory Activity (IC50, nM) human VAP-1
T4 construct: purchased R&D systems
T4 sequence (Q16853 1-763): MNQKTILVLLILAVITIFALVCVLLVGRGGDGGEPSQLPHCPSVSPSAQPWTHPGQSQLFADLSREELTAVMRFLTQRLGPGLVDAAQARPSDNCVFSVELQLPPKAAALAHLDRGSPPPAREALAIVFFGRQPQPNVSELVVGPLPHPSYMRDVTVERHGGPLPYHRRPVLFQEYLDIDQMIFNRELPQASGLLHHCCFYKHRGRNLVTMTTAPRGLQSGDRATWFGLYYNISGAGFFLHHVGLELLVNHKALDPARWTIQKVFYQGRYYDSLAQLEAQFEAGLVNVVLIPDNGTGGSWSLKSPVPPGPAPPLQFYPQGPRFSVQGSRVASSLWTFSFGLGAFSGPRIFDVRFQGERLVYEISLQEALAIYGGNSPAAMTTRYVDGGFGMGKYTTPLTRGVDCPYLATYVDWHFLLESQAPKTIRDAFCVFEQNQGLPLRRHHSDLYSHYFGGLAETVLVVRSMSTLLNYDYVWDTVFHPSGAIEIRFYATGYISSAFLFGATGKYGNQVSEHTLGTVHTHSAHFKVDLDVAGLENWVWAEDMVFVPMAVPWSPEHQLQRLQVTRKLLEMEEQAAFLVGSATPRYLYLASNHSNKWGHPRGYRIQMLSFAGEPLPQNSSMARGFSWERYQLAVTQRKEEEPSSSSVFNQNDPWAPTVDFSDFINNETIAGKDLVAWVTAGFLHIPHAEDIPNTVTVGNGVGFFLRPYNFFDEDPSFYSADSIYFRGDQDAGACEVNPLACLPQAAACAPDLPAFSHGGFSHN
How it was run: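 Recombinant human VAP-1 in 50 mM sodium phosphate pH 7.4 preincubated 30 min at 37 °C with compound (8-point 1:3 series, <1% DMSO), then 1 mM benzylamine, 200 uM Amplex Red, 1 U/mL HRP added. H2O2-derived resorufin fluorescence (ex 544/em 590) followed 1–2 h; IC50 from four-parameter fit of rate inhibition.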

[4] = recombinant human VAP-1, 30 min preincubation at 37° C., 1 mM benzylamine
[5] = recombinant human VAP-1, benzylamine substrate

IC50 ([1]; 1 mM putrescine) | IC50 ([2]; 0.5 mM tyramine) | IC50 ([3]; 1 mM benzylamine) | IC50 (recombinant human VAP-1; [4]) | IC50 ([1]; 1 mM putrescine substrate) | IC50 ([2]; 0.5 mM tyramine substrate) | IC50 ([3]; 1 mM benzylamine substrate) | IC50 (recombinant human VAP-1; [5]) | SMILES
300 nM | > 100000 nM | 23000 nM | 0.9 nM | – | – | – | – | CN1C(=O)CCc2cc(-c3cccc(-n4cnn(CC(CN)=C(F)F)c4=O)n3)ccc21 [Example 52, 6-[6-[1-[2-(aminomethyl)-3,3-difluoro-allyl]-5-oxo-1,2,4-triazol-4-yl]-2-pyridyl]-1-methyl-3,4-dihydroquinolin-2-one Trifluoroacetate]
– | – | – | – | > 100000 nM | > 100000 nM | > 100000 nM | 0.3 nM | NCC(Cn1ncn(Cc2ccc(-c3cnn(CC4CC4)c3)s2)c1=O)=C(F)F [Example 295, 2-[2-(aminomethyl)-3,3-difluoro-allyl]-4-[[5-[1-(cyclopropylmethyl)pyrazol-4-yl]-2-thienyl]methyl]-1,2,4-triazol-3-one Trifluoroacetate]
9100 nM | > 100000 nM | 17000 nM | 3.2 nM | – | – | – | – | Cc1cc(-c2ccc(C(F)(F)F)nc2)sc1Cn1cnn(CC(CN)=C(F)F)c1=O [Example 156, 2-[2-(aminomethyl)-3,3-difluoro-allyl]-4-[[3-methyl-5-[6-(trifluoromethyl)-3-pyridyl]-2-thienyl]methyl]-1,2,4-triazol-3-one Trifluoroacetate]
7100 nM | > 100000 nM | > 100000 nM | 3.5 nM | – | – | – | – | NCC(Cn1ncn(-c2cc(Br)ccn2)c1=O)=C(F)F [Example 9, 2-[2-(aminomethyl)-3,3-difluoro-allyl]-4-(4-bromo-2-pyridyl)-1,2,4-triazol-3-one Trifluoroacetate]
890 nM | > 100000 nM | 300 nM | 0.6 nM | – | – | – | – | CCn1cc(-c2ccc(-n3cnn(CC(CN)=C(F)F)c3=O)cc2F)cn1 [Example 30, 2-[2-(aminomethyl)-3,3-difluoro-allyl]-4-[4-(1-ethylpyrazol-4-yl)-3-fluoro-phenyl]-1,2,4-triazol-3-one Trifluoroacetate]
8400 nM | > 100000 nM | > 100000 nM | 3.1 nM | – | – | – | – | CCn1cc(-c2cccc(-n3cnn(CC(CN)=C(F)F)c3=O)c2)cn1 [Example 23, 2-[2-(aminomethyl)-3,3-difluoro-allyl]-4-[3-(1-ethylpyrazol-4-yl)phenyl]-1,2,4-triazol-3-one Trifluoroacetate]

Further lines, the compound ahead of its results:

SMILES | IC50 ([1]; 1 mM putrescine) | IC50 ([2]; 0.5 mM tyramine) | IC50 ([3]; 1 mM benzylamine) | IC50 (recombinant human VAP-1; [4]) | IC50 ([1]; 1 mM putrescine substrate) | IC50 ([2]; 0.5 mM tyramine substrate) | IC50 ([3]; 1 mM benzylamine substrate) | IC50 (recombinant human VAP-1; [5])
NCC(Cn1ncn(-c2ccc(-c3ccc(C(F)(F)F)nc3)c(F)c2)c1=O)=C(F)F [Example 26, 2-[2-(aminomethyl)-3,3-difluoro-allyl]-4-[3-fluoro-4-[6-(trifluoromethyl)-3-pyridyl]phenyl]-1,2,4-triazol-3-one Trifluoroacetate] | 71 nM | > 100000 nM | 180 nM | 0.7 nM | – | – | – | –
Cc1cc(-c2ccc(Cn3cnn(CC(CN)=C(F)F)c3=O)cc2)cc2c1NC(=O)CC2 [Example 269, 6-[4-[[1-[2-(aminomethyl)-3,3-difluoro-allyl]-5-oxo-1,2,4-triazol-4-yl]methyl]phenyl]-8-methyl-3,4-dihydro-1H-quinolin-2-one Trifluoroacetate] | – | – | – | – | 71000 nM | > 100000 nM | > 100000 nM | 1 nM
CN1C(=O)CCc2cc(-c3ccc(CCn4cnn(CC(CN)=C(F)F)c4=O)s3)ccc21 [Example 179, 6-[5-[2-[1-[2-(aminomethyl)-3,3-difluoro-allyl]-5-oxo-1,2,4-triazol-4-yl]ethyl]-2-thienyl]-1-methyl-3,4-dihydroquinolin-2-one Trifluoroacetate] | 290 nM | > 100000 nM | > 100000 nM | 0.3 nM | – | – | – | –
CN1C(=O)COc2cc(-c3ccc(Cn4cnn(CC(CN)=C(F)F)c4=O)s3)ccc21 [Example 144, 7-[5-[[1-[2-(aminomethyl)-3,3-difluoro-allyl]-5-oxo-1,2,4-triazol-4-yl]methyl]-2-thienyl]-4-methyl-1,4-benzoxazin-3-one Trifluoroacetate] | > 10000 nM | > 100000 nM | > 100000 nM | 0.7 nM | – | – | – | –
NCC(Cn1ncn(Cc2ccc(-c3cccc(N4CCNCC4)c3)s2)c1=O)=C(F)F [Example 107, 2-[2-(aminomethyl)-3,3-difluoro-allyl]-4-[[5-(3-piperazin-1-ylphenyl)-2-thienyl]methyl]-1,2,4-triazol-3-one Ditrifluoroacetate] | 12000 nM | > 100000 nM | 46000 nM | 3.5 nM | – | – | – | –
NCC(Cn1ncn(-c2cnc(-c3ccc(N4CCNCC4)cc3)cn2)c1=O)=C(F)F [Example 90, 2-[2-(aminomethyl)-3,3-difluoro-allyl]-4-[5-(4-piperazin-1-ylphenyl)pyrazin-2-yl]-1,2,4-triazol-3-one Ditrifluoroacetate] | 30 nM | > 100000 nM | > 100000 nM | 1.3 nM | – | – | – | –
CN1CCOc2cc(-c3ccc(Cn4cnn(CC(CN)=C(F)F)c4=O)s3)ccc21 [Example 140, 2-[2-(aminomethyl)-3,3-difluoro-allyl]-4-[[5-(4-methyl-2,3-dihydro-1,4-benzoxazin-7-yl)-2-thienyl]methyl]-1,2,4-triazol-3-one Trifluoroacetate] | 6800 nM | 6600 nM | 8000 nM | 0.8 nM | – | – | – | –

Reference: patent publication US11168073B2, “3,3-difluoroallylamines or salts thereof and pharmaceutical compositions comprising the same” (YUHAN CORPORATION, priority 2018, dated 2021)
